From patent publication US5990170A, “Therapeutic use of mono and bicarboxylic acid amides active at the peripheral cannabinoid receptor” (Lifegroup S.p.A., priority 1994, dated 1999)
Where two headings read alike, the source gives them in different places.

Tests used:
[1] = Solubility in water and organic solvents; settings: for solubility in water: result in words
[2] = molecular target: T1, CB2 receptor (RBL-2H3 cell membranes) (Rattus norvegicus, UniProt Q9QZN9); experiment: Competitive displacement of 3H-WIN 55,212-2 binding to RBL-2H3 cell membranes; settings: for inhibition at 10 µM: read-out: % Displacement
T1 construct: Preparation of Plasmatic Membranes of RBL-2H3 Cells; endogenous in cells; host or cells: RBL-2H3 (rat basophilic leukemia) cell membranes
T1 sequence (Q9QZN9 1-360): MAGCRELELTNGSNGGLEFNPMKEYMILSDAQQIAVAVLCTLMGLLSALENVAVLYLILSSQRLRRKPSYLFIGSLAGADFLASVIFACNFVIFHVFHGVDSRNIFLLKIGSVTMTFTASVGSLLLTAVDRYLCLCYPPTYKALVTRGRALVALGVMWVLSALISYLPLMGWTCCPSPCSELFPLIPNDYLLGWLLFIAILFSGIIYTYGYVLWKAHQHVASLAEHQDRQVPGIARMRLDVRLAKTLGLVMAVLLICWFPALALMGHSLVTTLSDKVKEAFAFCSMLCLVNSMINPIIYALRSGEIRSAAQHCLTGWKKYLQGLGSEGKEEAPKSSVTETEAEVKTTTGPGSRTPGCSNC
Procedure: RBL-2H3 cells (100×10^6), frozen at -80° C., were thawed with 4 ml of Tris-HCl buffer solution 50 mM (pH 7.4), added with 0.25% w/v of Tripsin inhibitor, TYPE II-S: SOY BEAN® (distributed by Sigma). The cells were resuspended in the buffer and homogenized. The homogenate was centrifuged at 1500×g at 4° C. for 10 min. The supernatant obtained was collected and the precipitate was resuspended in 4 ml of the previous buffer. The resuspended precipitate was homogenized and centrifuged again at 1500×g at 4° C. for 5-10 min. The resulting supernatant was combined to the supernatant previously obtained and centrifuged at 5000×g for 10 min. After centrifugation, the supernatant was collected and further centrifuged at 40,000×g at 4° C. for 30 min. The resulting precipitate was resuspended in 0.5 ml of the buffer solution described above, with addition of 1% Bovine Serum Albumin fatty acid free. The obtained suspension was centrifuged at 40,000×g at 4° C. for 30 min. The resulting precipitate was collected and resuspended in buffer solution containing 50 mM Tris HCl, 1 mM Tris-EDTA, 3 mM MgCl2, pH 7.4, in order to obtain a proteic concentration of 1 μg/μl approx. This preparation may be used fresh, or frozen at -80° C. and utilized within few days.
Non-radioactive WIN 55,212-2 (1 μM) was used to inhibit specific binding. […] The competitors were added to the binding mixture prior to the labelled ligand. In both cases, for an evaluation of the reference specific binding, ethanol and DMSO were added at the same final concentration to the total binding and to the aspecific one, also in the absence of competitors.
WIN 55,212-2 was used at a concentration of 3 μM, whereas the other compounds were used at a concentration of 10 μM.
Incubation was carried out in the presence of 1% DMSO. The values of Inhibitory Concentration 50 (IC50) are expressed as means ± SEM, after the number of experiments reported hereinbelow.

RBL-2H3 cells = experiment: Inhibition of 3H-serotonin release induced by ADNP/DNP-HSA immunogenic stimulation in RBL-2H3 cells; format: cell-based, rat; settings: for 3H-serotonin net release inhibition (%): + anandamide (12.5 μM) (Table 4); for functional effect following receptor activation (serotonin release): result in words; for inhibition at 100 µM: 100 μM (Table 8); for EC50: 15 minutes release period (Table 9); for inhibition at 30 µM: 30 μM (Table 8); for effect of anandamide co-incubation on the ability to inhibit serotonin release: co-incubation with anandamide, in words
[3] = molecular target: T1, CB2 receptor (RBL-2H3 cell membranes); experiment: Competitive displacement of 3H-WIN 55,212-2 binding to RBL-2H3 cell membranes; settings: competitor 10 μM; 0.1% DMSO
[4] = dmso, organic solvent or mixture
[5] = ethanol, organic solvent or mixture
[6] = Rattus norvegicus, RBL-2H3, 0.25 h, 0.1% DMSO and 0.1% ethanol (Table 3), read-out: 3H-serotonin net release (%)
[7] = Rattus norvegicus, RBL-2H3, 0.25 h, 0.1% DMSO and 0.1% ethanol (Table 3), read-out: ED50 (the source's name)
[8] = Rattus norvegicus, RBL-2H3, read-out: 3H-serotonin net release inhibition (%)
[9] = read-out: ED50, inhibition of 3H-serotonin release, + anandamide (12.5 μM) (Table 5), 15 min
[10] = Rattus norvegicus, RBL-2H3, read-out: 3H-serotonin release inhibition %, 0.2% DMSO
[11] = Rattus norvegicus, RBL-2H3, read-out: 3H-serotonin release inhibition %, 1% DMSO
[12] = chloroform, organic solvent or mixture
[13] = Rattus norvegicus, RBL-2H3, read-out: EC50, concentration inhibiting by 50% the net release of 3H serotonin, 0.2% DMSO
[14] = Rattus norvegicus, RBL-2H3, read-out: EC50, concentration inhibiting by 50% the net release of 3H serotonin, 1% DMSO

| SMILES | solubility [1, 4] | solubility [1, 5] | solubility in water [1] | inhibition at 10 µM [2] | EC50 (RBL-2H3 cells; [13]) | EC50 (RBL-2H3 cells; [14]) | other results |
| --- | --- | --- | --- | --- | --- | --- | --- |
| C=CCCCCCCCCC(=O)NCCO [Example 28, N-(2-hydroxyethyl)-10-undecenoylamide] | > 10000 µg/mL | > 10000 µg/mL | scarcely soluble | 77% |  |  | activity at 100 µM (RBL-2H3 cells; [6]): 100% |
| CCCCCCCCCCCCCCCC(=O)NCCOP(=O)(O)O [Example 27, N-palmitoylethanolamide phosphate] | > 10000 µg/mL |  | scarcely soluble | 42% |  |  | Specific binding [3]: 843; solubility ([1]; phosphate buffer, pH 7.4, aqueous buffer): > 1000 µg/mL; IC50 [2]: 0.0076 µM; 3H-serotonin net release inhibition (%) (RBL-2H3 cells; 7.5 μM): 46%; activity at 7.5 µM (RBL-2H3 cells; Rattus norvegicus, RBL-2H3, 0.25 h, 7.5 μM, 0.1% DMSO and 0.1% ethanol (Table 3), read-out: 3H-serotonin net release (%)): 0%; IC50 (RBL-2H3 cells; [7]): 3.8 µM; inhibition at 7.5 µM (RBL-2H3 cells; [8]): 100%; IC50 (RBL-2H3 cells; [9]): 9.5 µM; functional effect following receptor activation (serotonin release) (RBL-2H3 cells): can inhibit the effects induced by mast cell activation and exert an effect that is higher than or comparable to the one of cannabinoids |
| O=C(/C=C/CCCCCCCCC(=O)NCCO)NCCO [Example 26, N,N'-bis(2-hydroxyethyl)-trans-2-dodecenediamide] | > 10000 µg/mL | > 10000 µg/mL |  | 72% |  |  | Specific binding [3]: 402; solubility ([1]; water): > 10000 µg/mL; 3H-serotonin net release inhibition (%) (RBL-2H3 cells; 50 μM): 48%; activity at 50 µM (RBL-2H3 cells; Rattus norvegicus, RBL-2H3, 0.25 h, 50 μM, 0.1% DMSO and 0.1% ethanol (Table 3), read-out: 3H-serotonin net release (%)): 21%; IC50 (RBL-2H3 cells; [7]): 28 µM; inhibition at 100 µM (RBL-2H3 cells; [10]): > 95%; inhibition at 100 µM (RBL-2H3 cells; [11]): > 95%; inhibition at 50 µM (RBL-2H3 cells; [8]): 79%; IC50 (RBL-2H3 cells; [9]): 50 µM |
| CCCCCCC(C)(C)c1cc(O)c2c(c1)OC(C)(C)[C@@H]1CCC(=O)C[C@@H]21 (relative stereo) [Nabilone, 3-(1,1-dimethylheptyl)-6,6a,7,8,10,10a-hexahydro-1-hydroxy-6,6-dimethyl-9H-dibenzo-[b,d]-pyran-9-one, reference compound] |  |  |  | 100% |  |  | IC50 [2]: 0.0026 ± 0.0014 µM; binding to the peripheral receptor ([2]; result in words): able to bind to the receptor and to compete; 3H-serotonin net release inhibition (%) (RBL-2H3 cells; 5 μM): 50%; activity at 10 µM (RBL-2H3 cells; Rattus norvegicus, RBL-2H3, 0.25 h, read-out: 3H-serotonin net release (%)): 0%; IC50 (RBL-2H3 cells; Rattus norvegicus, RBL-2H3, 0.25 h, read-out: ED50): 2.8 µM; inhibition at 5 µM (RBL-2H3 cells; Rattus norvegicus, RBL-2H3, read-out: 3H-serotonin net release inhibition (%), 5 μM, - anandamide (Table 4)): 90%; IC50 (RBL-2H3 cells; [9]): 5 µM; functional effect following receptor activation (serotonin release) (RBL-2H3 cells): able to inhibit, in a concentration-dependent way, RBL cells immunogenic activation |
| C=C(C)[C@@H]1CCC(C)=C[C@H]1c1c(O)cc(CCCCC)cc1O [Cannabidiol, cannabidiol, reference compound] |  |  |  |  |  |  | IC50 [2]: > 1 µM |
| CCCCCCCCCCCC(=O)NCCO [Example 22, N-(2-hydroxyethyl)-lauroylamide] | > 10000 µg/mL |  | scarcely soluble | 72% | 35 µM | 11 µM | solubility [1, 12]: > 10000 µg/mL; IC50 ([2]; RBL-2H3 cell membranes, 1% DMSO, means ± SEM): 0.0181 µM; inhibition at 100 µM (RBL-2H3 cells; [10]): 100%; inhibition at 100 µM (RBL-2H3 cells; [11]): 91% |
| CCCCCC/C=C\CCCCCCCC(=O)NCCO [Example 19, N-(2-hydroxyethyl)-palmitoleylamide] | > 10000 µg/mL | > 10000 µg/mL | scarcely soluble | 100% |  |  | activity at 100 µM (RBL-2H3 cells; [6]): 100% |
| CCCCCCCCCCCCCCCC(=O)NCCc1ccc(O)cc1 [Example 34, N-(p-hydroxy-phenylethyl)-palmitoylamide] | > 10000 µg/mL | > 10000 µg/mL | scarcely soluble |  | 13 µM | 0.36 µM |  |
| CCCCCCCCCCCCCCCC(=O)N1CCOCC1 [Example 29, N-palmitoyl-morpholine] | > 10000 µg/mL |  | scarcely soluble |  | 42 µM | 3.5 µM | solubility ([1]; hot ethanol, organic solvent or mixture): > 10000 µg/mL; inhibition at 50 µM (RBL-2H3 cells; Rattus norvegicus, RBL-2H3, read-out: 3H-serotonin release inhibition %, 0.2% DMSO, 50 μM (Table 8)): 36%; inhibition at 30 µM (RBL-2H3 cells; [11]): 88% |
| CCCCCCCC/C=C\CCCCCCCC(=O)NCc1ccc(O)c(OC)c1 [Example 20, N-(4-hydroxy-3-methoxybenzyl)-oleoylamide] | > 10000 µg/mL | > 10000 µg/mL | scarcely soluble |  | 6.3 µM |  |  |
| CCCCCCCCCCCCCCCC(=O)NCCOC [Example 35, N-(2-methoxy-ethyl)-palmitoylamide] |  | > 10000 µg/mL | scarcely soluble |  | 6.3 µM | 9.2 µM |  |
| CCCCCCCCCCCC(=O)NCCCCO [Example 18, N-(4-hydroxybutyl)-lauroylamide] | > 10000 µg/mL | > 10000 µg/mL | scarcely soluble |  | 63 µM |  |  |
| CCCCCCCCCCCCCCCC(=O)N[C@@H](C)[C@H](O)c1ccccc1 [Example 7, N-palmitoyl-[(1R,2S)-(-)-norephedrine]] | > 10000 µg/mL | > 10000 µg/mL | scarcely soluble |  | 4.7 µM |  | inhibition at 30 µM (RBL-2H3 cells; [10]): 93%; inhibition at 100 µM (RBL-2H3 cells; [11]): 100% |
| CCCCCCCCCCCCCCCC(=O)N[C@@H](CO)Cc1ccccc1 [Example 10, N-palmitoyl-[(R)-(+)-2-amino-3-phenyl-1-propanol]] |  |  | scarcely soluble |  |  |  | solubility [1, 12]: > 10000 µg/mL; activity at 100 µM (RBL-2H3 cells; [6]): 0%; effect of anandamide co-incubation on the ability to inhibit serotonin release (RBL-2H3 cells): reduces the ability |
| CCCCCCCCCCCCCCCC(=O)N[C@H](CO)Cc1ccccc1 [Example 9, N-palmitoyl-[(S)-(-)-2-amino-3-phenyl-1-propanol]] |  |  | scarcely soluble |  |  |  | solubility [1, 12]: > 10000 µg/mL; activity at 100 µM (RBL-2H3 cells; [6]): 0%; inhibition at 100 µM (RBL-2H3 cells; [10]): 100%; effect of anandamide co-incubation on the ability to inhibit serotonin release (RBL-2H3 cells): reduces the ability |
| CCCCCCCCCCCC(=O)N[C@H](C)[C@@H](O)c1ccccc1 [Example 6, N-lauroyl-[(1S,2R)-(+)-norephedrine]] | > 10000 µg/mL | > 10000 µg/mL | scarcely soluble |  | 30 µM | 8.8 µM |  |
